Laboratory results as given in EP0860438B1, “Fluorine-containing diphenyl acrylamide antimicrobial agents” (Shenyang Research Institute of Chemical Industry, priority 1997, dated 1998).
Like-named read-outs stand apart in the source and are kept apart here.

Legend:
cucumber downy mildew [1] = assay: Indoor comparison with currently available antimicrobial agents, protective effect (Example 12); type: in vivo, Pseudoperonospora cubensis; conditions: seedling of yellow melon
cucumber downy mildew [2] = assay: Indoor comparison with currently available antimicrobial agents, therapeutic effect (Example 12); type: in vivo, Pseudoperonospora cubensis; conditions: seedling of yellow melon
[3] = test system: cucumber downy mildew (Pseudoperonospora cubensis); assay: Test for inhibition of spore germination in cucumber downy mildew; type: cell-based
cucumber downy mildew [4] = assay: Field therapeutic test against cucumber downy mildew (Example 14); type: in vivo, Pseudoperonospora cubensis; conditions: three treatments, examined on June 3
Experimental: Therapeutic effect (field test).
Field therapeutic test of the compound 1 against cucumber downy mildew was carried out in a farm at a village near Shenyang City.
Concentration of the Compound 1 (20% wettable powder) was set at 100, 200 and 300 ppm. Chlor 1500 ppm was used as the control, and blank control was set separately also. Each treatment was repeated three times. First treatment was made on May 13, second treatment was made on May 20, and third treatment was made on May 27, and protective effect was examined on June 3.

cucumber downy mildew [5] = assay: Indoor therapeutic test against cucumber downy mildew (Example 10); conditions: treated 24 hours after inoculation, examined a week later
Experimental: (§1) Concentration of test Compound 1 (content was 9% in emulsion oil) was set at 250, 200, 150, 100 and 75 ppm. Dimethomorph (American Cyanamid) 150 ppm was used as the control. Healthy seedling of yellow melon was selected for use, and test was run three times. For protection test, treatment was carried out on September 17, 1995, and they were inoculated 24 hours later. For the therapeutic test, inoculation was made on September 18, and then they were treated 24 hours later. Examination was made a week later, and results were recorded in 9 grades, and disease index and protection effect were calculated.

Downy mildew [6] = assay: Indoor comparison with Dimethomorph, test for protection (Example 11); conditions: seedling of yellow melon, 2 - 3 leaf stage
From the text: (§2) Test was divided into test for therapy and test for protection. Concentration of two chemicals (Compound 1 and Dimethomorph) was set at 150 and 100 ppm, and each treatment was run three times. A blank control was set separately. Samples were selected from seedling of yellow melon in the 2 - 3 leaf stage. Method of treatment and study was the same as before.

cucumber downy mildew [7] = assay: Field protection test against cucumber downy mildew (Example 13); type: in vivo, Pseudoperonospora cubensis; design: Disease index: scale not given here
Experimental: Protective action (field test).
Field protection test against cucumber downy mildew was carried out in the farm at a village near Shenyang City. Concentration of the Compound 1 (20% wettable powder) was set at 200, 400 and 600 ppm. Concentration of Previcur (66.5% hydrate ) which was used as the control, was set at 800, 1000 and 1200 ppm. And, a blank control was set separately also. Each treatment was run 4 times. Samples were taken for examination. […] First examination of protective effect was made on April 22. The second examination of protective effect was made on April 29, and the third examinatnion of protective effect was made on May 5.

Downy mildew [8] = assay: Indoor comparison with Dimethomorph, test for therapy (Example 11); conditions: seedling of yellow melon, 2 - 3 leaf stage
From the text: as §2

cucumber downy mildew [9] = assay: Indoor protection test against cucumber downy mildew (Example 10); conditions: inoculated 24 hours after treatment, examined a week later
Experimental: as §1

late blight of tomato = type: in vivo; conditions: three treatments, examined on June 20, field
[10] = Pseudoperonospora cubensis, 24 h, read-out: % Inhibition of spore

In the case of `[Al]#[P]` [Aluminium phosphide, aluminium phosphide, reference compound], the “Protective effect/preventive (%)control” value (cucumber downy mildew [1]; 1000 ppm) is reported as 75.0% and the “Therapeutic effect (%)control” value (cucumber downy mildew [2]; 1000 ppm) is reported as 40.0%.

`N#Cc1c(Cl)c(Cl)c(Cl)c(C#N)c1Cl` [Chlorothalonil, reference compound] was tested, and the “Protective effect/preventive (%)control” value (cucumber downy mildew [1]; 1000 ppm) was 90.0% and the “Therapeutic effect (%)control” value (cucumber downy mildew [2]; 1000 ppm) was 75.0%.

`COc1ccc(/C(=C\C(=O)N2CCOCC2)c2ccc(F)cc2)cc1OC` [Compound 1] was tested, and the “Protective effect/preventive (%)control” value (cucumber downy mildew [1]; 25 ppm) was 40.0%, the “Protective effect/preventive (%)control” value (cucumber downy mildew [1]; 50 ppm) was 60.0% and the “Protective effect/preventive (%)control” value (cucumber downy mildew [1]; 75 ppm) was 75.0%. The “Protective effect/preventive (%)control” value (cucumber downy mildew [1]; 100 ppm) was 90.0%, the “Protective effect/preventive (%)control” value (cucumber downy mildew [1]; 200 ppm) was 100.0% and the “Therapeutic effect (%)control” value (cucumber downy mildew [2]; 25 ppm) was 0.0%. The “Therapeutic effect (%)control” value (cucumber downy mildew [2]; 50 ppm) was 40.0%, the “Therapeutic effect (%)control” value (cucumber downy mildew [2]; 75 ppm) was 60.0% and the “Therapeutic effect (%)control” value (cucumber downy mildew [2]; 100 ppm) was 75.0%. The “Therapeutic effect (%)control” value (cucumber downy mildew [2]; 200 ppm) was 90.0%, the “% Spore germination” value ([3]; 25 ppm, 25°C, after 24 hours) was 23.1% and the “Number of spores germinated” value ([3]; 25 ppm, 25°C, after 24 hours) was 198. The “Number of ungerminated spores” value ([3]; 25 ppm, 25°C, after 24 hours) was 660, the “% Spore germination” value ([3]; 50 ppm, 25°C, after 24 hours) was 4.3% and the “Number of spores germinated” value ([3]; 50 ppm, 25°C, after 24 hours) was 45. For the same compound, the “Number of ungerminated spores” value ([3]; 50 ppm, 25°C, after 24 hours) was 990, the “% Spore germination” value ([3]; 100 ppm, 25°C, after 24 hours) was 1.6% and the “Number of spores germinated” value ([3]; 100 ppm, 25°C, after 24 hours) was 17. The “Number of ungerminated spores” value ([3]; 100 ppm, 25°C, after 24 hours) was 1044, the inhibition at 25 ppm [3, 10] was 65.2% and the inhibition at 50 ppm [3, 10] was 93.5%. The inhibition at 100 ppm [3, 10] was 97.6%, the Disease index (cucumber downy mildew [4]; 100 ppm) was 0.049 and the “Protective effect (%)control” value (cucumber downy mildew [4]; 100 ppm) was 88.4%. The Disease index (cucumber downy mildew [4]; 200 ppm) was 0.011, the “Protective effect (%)control” value (cucumber downy mildew [4]; 200 ppm) was 97.4% and the Disease index (cucumber downy mildew [4]; 300 ppm) was 0. The “Protective effect (%)control” value (cucumber downy mildew [4]; 300 ppm) was 100%, the “Therapeutic (%)control” value (cucumber downy mildew [5]; 75 ppm) was 78.8% and the “Therapeutic Disease index” value (cucumber downy mildew [5]; 75 ppm) was 0.11. The “Therapeutic (%)control” value (cucumber downy mildew [5]; 100 ppm) was 84.6%, the “Therapeutic Disease index” value (cucumber downy mildew [5]; 100 ppm) was 0.08 and the “Therapeutic (%)control” value (cucumber downy mildew [5]; 150 ppm) was 100%. For the same compound, the “Therapeutic Disease index” value (cucumber downy mildew [5]; 150 ppm) was 0, the “Therapeutic (%)control” value (cucumber downy mildew [5]; 200 ppm) was 98.1% and the “Therapeutic Disease index” value (cucumber downy mildew [5]; 200 ppm) was 0.01. For the same compound, the “Therapeutic (%)control” value (cucumber downy mildew [5]; 250 ppm) was 100%, the “Therapeutic Disease index” value (cucumber downy mildew [5]; 250 ppm) was 0 and the “Protective effect (%)control” value (Downy mildew [6]; 100 ppm) was 93%. The “Protective effect Disease index” value (Downy mildew [6]; 100 ppm) was 0.07, the “Protective effect (%)control” value (Downy mildew [6]; 150 ppm) was 95% and the “Protective effect Disease index” value (Downy mildew [6]; 150 ppm) was 0.05. For the same compound, the Disease index (cucumber downy mildew [7]; 200 ppm, April 22) was 0, the “Protective (%)control” value (cucumber downy mildew [7]; 200 ppm, April 22) was 100% and the Disease index (cucumber downy mildew [7]; 200 ppm, April 29) was 0. The “Protective (%)control” value (cucumber downy mildew [7]; 200 ppm, April 29) was 100%, the Disease index (cucumber downy mildew [7]; 200 ppm, May 5) was 0.03 and the “Protective (%)control” value (cucumber downy mildew [7]; 200 ppm, May 5) was 97.0%. For the same compound, the Disease index (cucumber downy mildew [7]; 400 ppm, April 22) was 0, the “Protective (%)control” value (cucumber downy mildew [7]; 400 ppm, April 22) was 100% and the Disease index (cucumber downy mildew [7]; 400 ppm, April 29) was 0. The “Protective (%)control” value (cucumber downy mildew [7]; 400 ppm, April 29) was 100%, the Disease index (cucumber downy mildew [7]; 400 ppm, May 5) was 0 and the “Protective (%)control” value (cucumber downy mildew [7]; 400 ppm, May 5) was 100%. The Disease index (cucumber downy mildew [7]; 600 ppm, April 22) was 0, the “Protective (%)control” value (cucumber downy mildew [7]; 600 ppm, April 22) was 100% and the Disease index (cucumber downy mildew [7]; 600 ppm, April 29) was 0. The “Protective (%)control” value (cucumber downy mildew [7]; 600 ppm, April 29) was 100%, the Disease index (cucumber downy mildew [7]; 600 ppm, May 5) was 0 and the “Protective (%)control” value (cucumber downy mildew [7]; 600 ppm, May 5) was 100%. The “Therapeutic effect (%)control” value (Downy mildew [8]; 100 ppm) was 63%, the “Therapeutic effect Disease index” value (Downy mildew [8]; 100 ppm) was 0.37 and the “Therapeutic effect (%)control” value (Downy mildew [8]; 150 ppm) was 74%. The “Therapeutic effect Disease index” value (Downy mildew [8]; 150 ppm) was 0.26, the “Protection (%)control” value (cucumber downy mildew [9]; 75 ppm) was 92.5% and the “Protection Disease index” value (cucumber downy mildew [9]; 75 ppm) was 0.03. The “Protection (%)control” value (cucumber downy mildew [9]; 100 ppm) was 100%, the “Protection Disease index” value (cucumber downy mildew [9]; 100 ppm) was 0 and the “Protection (%)control” value (cucumber downy mildew [9]; 150 ppm) was 100%. The “Protection Disease index” value (cucumber downy mildew [9]; 150 ppm) was 0, the “Protection (%)control” value (cucumber downy mildew [9]; 200 ppm) was 100% and the “Protection Disease index” value (cucumber downy mildew [9]; 200 ppm) was 0. The “Protection (%)control” value (cucumber downy mildew [9]; 250 ppm) was 100%, the “Protection Disease index” value (cucumber downy mildew [9]; 250 ppm) was 0 and the Disease index (late blight of tomato; 200 ppm) was 5.56. The “Protective (%)control” value (late blight of tomato; 200 ppm) was 80.9%, the Disease index (late blight of tomato; 400 ppm) was 2.59 and the “Protective (%)control” value (late blight of tomato; 400 ppm) was 91.1%. The Disease index (late blight of tomato; 600 ppm) was 2.22 and the “Protective (%)control” value (late blight of tomato; 600 ppm) was 94.9%.

With `COc1ccc(C(=CC(=O)N2CCOCC2)c2ccc(Cl)cc2)cc1OC` [Dimethomorph, reference compound] the “% Spore germination” value ([3]; 50 ppm, 25°C, after 24 hours) was 38.2%, the “Number of spores germinated” value ([3]; 50 ppm, 25°C, after 24 hours) was 208 and the “Number of ungerminated spores” value ([3]; 50 ppm, 25°C, after 24 hours) was 336. For the same compound, the inhibition at 50 ppm ([3]; Pseudoperonospora cubensis, 50 ppm, 25°C, after 24 hours, read-out: % Inhibition of spore) was 42.5%, the “Therapeutic (%)control” value (cucumber downy mildew [5]; 150 ppm) was 63.5% and the “Therapeutic Disease index” value (cucumber downy mildew [5]; 150 ppm) was 0.19. For the same compound, the “Protective effect (%)control” value (Downy mildew [6]; 100 ppm) was 61%, the “Protective effect Disease index” value (Downy mildew [6]; 100 ppm) was 0.39 and the “Protective effect (%)control” value (Downy mildew [6]; 150 ppm) was 79%. For the same compound, the “Protective effect Disease index” value (Downy mildew [6]; 150 ppm) was 0.21, the “Therapeutic effect (%)control” value (Downy mildew [8]; 100 ppm) was 2% and the “Therapeutic effect Disease index” value (Downy mildew [8]; 100 ppm) was 0.98. The “Therapeutic effect (%)control” value (Downy mildew [8]; 150 ppm) was 24%, the “Therapeutic effect Disease index” value (Downy mildew [8]; 150 ppm) was 0.76 and the “Protection (%)control” value (cucumber downy mildew [9]; 150 ppm) was 100%. The “Protection Disease index” value (cucumber downy mildew [9]; 150 ppm) was 0.

With `COCC(=O)N(c1c(C)cccc1C)C(C)C(=O)OC` (stereo not drawn) [metalaxyl, reference compound] the “Protective effect/preventive (%)control” value (cucumber downy mildew [1]; 500 ppm) was 60.0% and the “Therapeutic effect (%)control” value (cucumber downy mildew [2]; 500 ppm) was 40.0%.
